What was measured:
[1] = molecular target: Phosphodiesterase 3 (Homo sapiens, UniProt Q14432+Q13370); assay: Inhibition of PDE3; format: protein assay
[2] = molecular target: Phosphodiesterase 4 (Homo sapiens, UniProt P27815+Q08499+Q07343+Q08493); assay: Inhibition of PDE4; format: protein assay
[3] = molecular target: cGMP-specific 3',5'-cyclic phosphodiesterase (Canis lupus familiaris, UniProt O77746); assay: Inhibition of PDE5; set-up: species or system Homo sapiens
[4] = molecular target: Phosphodiesterase 6; assay: Inhibition of PDE6; format: protein assay, Homo sapiens
[5] = molecular target: cAMP and cAMP-inhibited cGMP 3',5'-cyclic phosphodiesterase 10A (Homo sapiens, UniProt Q9Y233); assay: Inhibition of human recombinant PDE10A-catalyzed cAMP hydrolysis
[6] = molecular target: cGMP-dependent 3',5'-cyclic phosphodiesterase (Homo sapiens, UniProt O00408); assay: Inhibition of PDE2
[7] = Oral bioavailability in rat at 10 mg/kg; format: ADME, organism-based; conditions: in vivo
[8] = Elimination half life in rat at 2 mg/kg, iv and 10 mg/kg, po; format: ADME, organism-based; conditions: in vivo, read-out: beta t1/2 (converted)
[9] = Clearance in rat at 2 mg/kg, iv and 10 mg/kg, po; format: ADME, organism-based; conditions: in vivo
[10] = Volume of distribution at steady state in rat at 2 mg/kg, iv and 10 mg/kg, po; format: ADME, organism-based; conditions: in vivo, read-out: Vdss
[11] = AUC in rat brain at 2 mg/kg, iv and 10 mg/kg, po; format: ADME, organism-based
[12] = AUC in rat plasma at 2 mg/kg, iv and 10 mg/kg, po; format: ADME, organism-based
[13] = test system: Rattus norvegicus; assay: Antipsychotic activity in po dosed rat assessed as reduction of MK801-induced hyperactivity; format: functional; set-up: Activity: scale not given: the % may be the effect or the level left; conditions: for minimal effective dose: Rattus norvegicus, po, read-out: MED
[14] = test system: Rattus norvegicus; assay: Antipsychotic activity in po dosed rat assessed as reduction of MK801-induced stereotyped sniffing; format: functional; set-up: Activity: scale not given: the % may be the effect or the level left; conditions: for minimal effective dose: Rattus norvegicus, po, read-out: MED
[15] = species: Homo sapiens; assay: Selectivity ratio of IC50 PDE2 to IC50 for human recombinant PDE10A

cAMP and cAMP-inhibited cGMP 3',5'-cyclic phosphodiesterase 10A, sequence (Q9Y233 whole entry): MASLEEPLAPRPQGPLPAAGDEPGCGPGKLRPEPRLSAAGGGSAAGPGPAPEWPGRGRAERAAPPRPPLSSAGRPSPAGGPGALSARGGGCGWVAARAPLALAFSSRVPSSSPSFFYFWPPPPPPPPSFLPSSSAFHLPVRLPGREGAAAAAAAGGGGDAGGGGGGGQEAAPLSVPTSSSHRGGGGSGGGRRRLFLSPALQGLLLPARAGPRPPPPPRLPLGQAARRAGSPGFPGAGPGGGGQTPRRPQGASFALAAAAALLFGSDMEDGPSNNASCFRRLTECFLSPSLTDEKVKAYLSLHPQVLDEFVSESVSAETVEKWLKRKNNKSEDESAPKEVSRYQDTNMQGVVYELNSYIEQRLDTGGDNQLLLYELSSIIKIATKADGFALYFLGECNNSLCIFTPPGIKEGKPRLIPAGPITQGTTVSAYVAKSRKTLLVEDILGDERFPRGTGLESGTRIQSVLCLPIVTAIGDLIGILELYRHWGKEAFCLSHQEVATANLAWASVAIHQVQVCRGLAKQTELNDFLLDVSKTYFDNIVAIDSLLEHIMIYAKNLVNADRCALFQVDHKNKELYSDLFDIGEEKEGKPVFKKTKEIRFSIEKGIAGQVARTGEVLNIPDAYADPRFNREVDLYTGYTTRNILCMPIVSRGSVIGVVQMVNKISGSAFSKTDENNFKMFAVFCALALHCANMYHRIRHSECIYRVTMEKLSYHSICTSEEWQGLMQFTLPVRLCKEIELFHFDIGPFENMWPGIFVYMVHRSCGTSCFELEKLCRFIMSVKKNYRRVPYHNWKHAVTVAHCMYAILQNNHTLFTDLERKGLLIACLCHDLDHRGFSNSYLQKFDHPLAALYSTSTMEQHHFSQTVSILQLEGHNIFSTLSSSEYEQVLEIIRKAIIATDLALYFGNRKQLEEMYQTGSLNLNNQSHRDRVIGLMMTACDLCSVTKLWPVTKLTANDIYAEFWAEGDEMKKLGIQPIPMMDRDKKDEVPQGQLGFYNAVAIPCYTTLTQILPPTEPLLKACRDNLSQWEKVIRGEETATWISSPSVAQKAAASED
cGMP-dependent 3',5'-cyclic phosphodiesterase, sequence (O00408 whole entry): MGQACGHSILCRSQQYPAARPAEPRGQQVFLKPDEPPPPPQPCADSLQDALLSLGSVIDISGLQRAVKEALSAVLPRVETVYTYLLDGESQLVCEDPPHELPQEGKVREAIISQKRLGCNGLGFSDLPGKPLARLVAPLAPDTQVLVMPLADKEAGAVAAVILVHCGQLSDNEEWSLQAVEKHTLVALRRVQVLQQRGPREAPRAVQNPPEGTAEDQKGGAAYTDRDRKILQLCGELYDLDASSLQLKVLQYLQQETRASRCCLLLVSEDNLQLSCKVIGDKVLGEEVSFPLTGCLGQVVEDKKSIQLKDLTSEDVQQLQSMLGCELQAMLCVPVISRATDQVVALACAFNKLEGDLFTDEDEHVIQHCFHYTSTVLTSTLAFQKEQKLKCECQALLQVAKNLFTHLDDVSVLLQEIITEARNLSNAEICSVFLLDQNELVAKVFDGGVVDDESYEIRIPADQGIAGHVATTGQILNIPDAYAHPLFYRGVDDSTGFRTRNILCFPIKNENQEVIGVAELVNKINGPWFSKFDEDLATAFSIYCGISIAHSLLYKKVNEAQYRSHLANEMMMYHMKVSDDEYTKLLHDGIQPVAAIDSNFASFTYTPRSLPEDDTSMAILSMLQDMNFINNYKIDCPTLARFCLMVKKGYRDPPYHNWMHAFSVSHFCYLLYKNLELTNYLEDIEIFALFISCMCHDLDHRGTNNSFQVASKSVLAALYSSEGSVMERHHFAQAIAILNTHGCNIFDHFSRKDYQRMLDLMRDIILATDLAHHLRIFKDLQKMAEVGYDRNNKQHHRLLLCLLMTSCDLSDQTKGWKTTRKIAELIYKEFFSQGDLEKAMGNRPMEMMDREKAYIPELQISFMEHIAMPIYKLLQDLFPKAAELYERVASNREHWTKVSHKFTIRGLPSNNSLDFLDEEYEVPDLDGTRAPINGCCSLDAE

SMILES	IC50 [1]	IC50 [2]	IC50 [3]	IC50 [4]	IC50 [5]	IC50 [6]	other results
COc1cc(F)cc2c1nnc1c(C)nc(-c3cccc(F)c3C)n12	> 1000 nM	> 1000 nM	> 1000 nM	> 1000 nM			
COc1cc(N2CCOCC2)cc2c1nnc1c(C)nc(-c3ccccc3Cl)n12	> 10000 nM	2680 nM	603 nM	276 nM			
COc1cc(OC)c2nnc3c(C)nc(-c4cccnc4C)n3c2c1	> 10000 nM	> 10000 nM	1430 nM	493 nM			bioavailability [7]: 100%; half-life [8]: 2 h; clearance [9]: 4 mL/min/kg; Vd [10]: 0.4 L/kg; AUC [11]: 6590 ng·h/mL; AUC [12]: 21300 ng·h/mL; Activity [13]: 90.2%; minimal effective dose [13]: 0.25 mg/kg; Activity [14]: 71.3%; minimal effective dose [14]: 0.25 mg/kg
COc1ccc(F)c(-c2nc(C)c3nnc4ccc(OC)nc4n23)c1	1820 nM	4820 nM	702 nM	734 nM			
COc1cc(F)cc2c1nnc1c(C)nc(-c3cnccc3C)n12	> 10000 nM	> 10000 nM	> 10000 nM	> 10000 nM			
COc1ccc2nnc3c(C)nc(-c4ccccc4C)n3c2n1	> 5000 nM	> 10000 nM	3410 nM	1570 nM	47.6 nM		
COc1cc(OC)c2nnc3c(C)nc(-c4ccccc4Cl)n3c2c1	> 5000 nM	1910 nM	436 nM	73.15 nM		30.3 nM	Activity [13]: 70.3%; minimal effective dose [13]: 0.5 mg/kg; Activity [14]: 55.7%; minimal effective dose [14]: 0.5 mg/kg
COc1cc(C(F)(F)F)cc2c1nnc1c(C)nc(-c3cnccc3C)n12	> 10000 nM	> 10001 nM	> 10000 nM	5250 nM	5.11 nM	864 nM	
COc1ccc2nnc3c(C)nc(-c4cc(Cl)ccc4Cl)n3c2n1	750 nM	4410 nM	1150 nM	829 nM	53.1 nM	2.06 nM	
COc1ccc2nnc3c(C)nc(-c4ccc(F)cc4C)n3c2n1	7260 nM	> 10000 nM	34100 nM	1150 nM	45.9 nM	13.2 nM	
COc1ccccc1-c1nc(C)c2nnc3c(OC)cc(F)cc3n12	> 10000 nM	> 10000 nM	> 10000 nM	> 10000 nM			
COc1cc(F)c2nnc3c(C)nc(-c4ccccc4OC)n3c2c1	> 1000 nM	> 1000 nM	> 1000 nM	> 1000 nM			Ratio IC50 [15]: > 400
COc1cc(F)cc2c1nnc1c(C)nc(-c3cccnc3C)n12	> 10000 nM	> 10000 nM	> 5000 nM	2830 nM	7.84 nM	1270 nM	
COc1cc(OC(F)F)cc2c1nnc1c(C)nc(-c3ccncc3C)n12	> 10000 nM	> 10000 nM	4020 nM	909 nM	7 nM	944 nM	
COc1cc(F)c2nnc3c(C)nc(-c4sccc4C)n3c2c1	2250 nM	3670 nM	2780 nM	1230 nM			
COc1cc(F)cc2c1nnc1c(C)nc(-c3sccc3C)n12	> 10000 nM	7720 nM	3600 nM	3270 nM			
COc1cccc2c1nnc1c(C)nc(-c3ccccc3Cl)n12	> 10000 nM	70.8 nM	3060 nM	1060 nM			

More lines, main results first:

IC50 [1]	IC50 [2]	IC50 [3]	IC50 [4]	IC50 [5]	IC50 [6]	SMILES	other results
				2430 nM	102 nM	COc1ccc2nnc3c(C)nc(-c4cc(OC(C)C)ccc4F)n3c2n1	
> 1000 nM	> 1000 nM	> 1000 nM	462 nM			COc1ccc2nnc3c(C)nc(-c4ccc(F)cc4Cl)n3c2n1	
> 1000 nM	> 1000 nM	> 1000 nM	> 1000 nM		2000 nM	COc1cccc(-c2nc(C)c3nnc4c(OC)cc(F)cc4n23)c1	
> 10000 nM	> 10000 nM	> 10000 nM	> 5000 nM			COc1cc(F)cc2c1nnc1c(C)nc(-c3c(C)nn(C)c3C)n12	
> 5000 nM	> 5000 nM	2130 nM	1260 nM	1.85 nM	722 nM	COc1cc(C(F)(F)F)cc2c1nnc1c(C)nc(-c3cccc(F)c3C)n12	
> 10000 nM	2460 nM	4760 nM	3880 nM			COc1cc(F)cc2c1nnc1c(C)nc(-c3sc(C)nc3C)n12	
> 10000 nM	> 10000 nM	1110 nM	349 nM	5.13 nM	95.9 nM	COc1cc(OC)c2nnc3c(C)nc(-c4ccccc4C)n3c2c1	
> 10000 nM	2920 nM	651 nM	693 nM			COc1cc(N2CCOCC2)cc2c1nnc1c(C)nc(-c3ccccc3C)n12	
1240 nM	> 10000 nM	1680 nM	435 nM	13.1 nM	4.3 nM	COc1ccc2nnc3c(C)nc(-c4ccccc4Cl)n3c2n1	
> 1000 nM	> 1000 nM	> 1000 nM	> 1000 nM			COc1ccc2nnc3c(C)nc(-c4ccc(Cl)cc4Cl)n3c2n1	
> 10000 nM	> 10000 nM	5380 nM	3120 nM		4.37 nM	COc1cc(N2CCOCC2)cc2c1nnc1c(C)nc(-c3ccncc3C)n12	
> 10000 nM	> 10000 nM	> 10000 nM	> 10000 nM	7.2 nM	1220 nM	COc1cc(F)cc2c1nnc1c(C)nc(-c3ccncc3C)n12	
> 10000 nM	> 10000 nM	5070 nM	1822 nM			COc1cc(OC)c2nnc3c(C)nc(-c4cnccc4C)n3c2c1	bioavailability [7]: 100%; half-life [8]: 0.8 h; clearance [9]: 14 mL/min/kg; Vd [10]: 0.5 L/kg; AUC [11]: 3000 ng·h/mL; AUC [12]: 8790 ng·h/mL; Activity [13]: 79.9%; minimal effective dose [13]: 1 mg/kg; Activity [14]: 69.8%; minimal effective dose [14]: 1 mg/kg
> 10000 nM	176 nM	3670 nM	1980 nM			COc1cccc2c1nnc1c(C)nc(-c3ccccc3C)n12	Ratio IC50 [15]: 60
> 1000 nM	> 1000 nM	> 1000 nM	> 1000 nM	3.35 nM	522 nM	COc1cc(OC)c2nnc3c(C)nc(-c4ccccc4C(F)(F)F)n3c2c1	

— ChEMBL document CHEMBL2069169, “Novel triazines as potent and selective phosphodiesterase 10A inhibitors” (Bioorg Med Chem Lett, 2012)
